The source of these data is ChEMBL document CHEMBL1201862, “PubChem BioAssay data set” (2004).

Test systems include K562; COLO 205; NCI-H460; U-251; Hs-578T; IGROV-1; NCI-H522; UACC-257; MDA-MB-435; UO-31; HCC 2998; A498; HL-60; HCT-15; CCRF-CEM; CAKI-1; SF-539; OVCAR-3; NCI-H23; HOP-62.
Common to all, as to test: DTP human tumour cell line panel, 48 h

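Where inhibition never reached the appropriate level, the endpoint shown equals the highest concentration tested. Otherwise, values were interpolated linearly from a five-concentration, 48-hour dose response in 96-well plates. At the GI50, growth is halved.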 The source made the active and inactive calls. No stated cut-off is given here; in the data, active = GI50 up to about 1.1 µM and inactive = higher. Non-standard residues stand in square brackets, D forms with d. Residues, ends and D or L forms follow the SMILES beside them. ξ: configuration not given here. *: point of attachment. NMeY = CN[C@@H](Cc1ccc(O)cc1)C(=O)O; Cbz = O=C(OCc1ccccc1)*; ξA = CC(N)C(=O)O

One may read the GI50 as the concentration that inhibits growth by half. Regarding `C=C(C(=O)O[C@H]1C(=O)C2=C(C)CCC3C(=C)C(=O)O[C@@H]3C2[C@]1(C)O)C1CC[C@]2(C)CCCC(=C)[C@H]2C1` (stereo partly drawn), the GI50 was 6.11 µM (inactive) with K562; 8.77 µM (inactive) in the assay with COLO 205; 3.16 µM (inactive) in the assay on NCI-H460; 4.94 µM (inactive) with U-251; 4.61 µM (inactive) in the assay with Hs-578T; 4.62 µM (inactive) with IGROV-1. For the same compound, the GI50 in the assay on NCI-H522 was 3.53 µM (inactive); with UACC-257, 4.25 µM (inactive); with MDA-MB-435 it was 3.35 µM (inactive); in the assay on UO-31 it was 6.34 µM (inactive); in the assay with HCC 2998 it was 1.91 µM (inactive); with A498, 10.7 µM (inactive). Further, the GI50 with HL-60 is 2 µM (inactive); in the assay with HCT-15 it was 3.48 µM; in the assay on CCRF-CEM, < 0.01 µM (active); in the assay on CAKI-1, 8.71 µM (inactive); in the assay on SF-539 it was 4.1 µM (inactive); in the assay on OVCAR-3 it was 4.75 µM (inactive). In addition, the figures for the GI50 in the assay on NCI-H23 and in the assay on HOP-62 were 7.35 µM (inactive) and 8.32 µM (inactive), respectively.
In the case of `CC(C)(C)OC(=O)N1CC(CCl)c2ccc(O)cc21` (stereo not drawn), the GI50 with K562 is 2.87 µM (inactive); with COLO 205 it was 1.81 µM (inactive); in the assay on NCI-H460, 2.67 µM (inactive); in the assay with U-251, 3.15 µM (inactive); in the assay on Hs-578T, 2.8 µM (inactive); with IGROV-1, 3.84 µM (inactive). The GI50 in the assay with NCI-H522 was 0.612 µM (active); in the assay with UACC-257 it was 2.01 µM (inactive); in the assay with MDA-MB-435 it was 1.99 µM (inactive); with UO-31, 2.29 µM (inactive); in the assay on HCC 2998 it was 0.0223 µM (active); in the assay on A498, 2.06 µM (inactive). Further, the GI50 in the assay on HL-60 is 1.87 µM (inactive); with HCT-15, 2.59 µM; in the assay with CCRF-CEM it was 1.29 µM (inactive); in the assay on CAKI-1, 2.97 µM (inactive); in the assay with SF-539, 2.16 µM (inactive); in the assay with OVCAR-3, 2.51 µM (inactive). The GI50 with NCI-H23 is 1.04 µM (active); in the assay with HOP-62, 3.29 µM (inactive).
As for `O=c1[nH]c2nc[nH]c2c(=O)n1C1CCCCC1`, the GI50 in the assay with K562, with COLO 205, in the assay on NCI-H460, in the assay on U-251, in the assay with Hs-578T and with IGROV-1 was > 100 µM (inactive) throughout. Further, the GI50 with NCI-H522, with UACC-257, in the assay with MDA-MB-435, in the assay on UO-31, in the assay with HCC 2998 and with A498 was > 100 µM (inactive) in each case. The GI50 is 6.01 µM (inactive) in the assay with HL-60; above 100 µM in the assay with HCT-15; > 100 µM (inactive) in the assay with CCRF-CEM; > 100 µM (inactive) in the assay on CAKI-1; > 100 µM (inactive) in the assay with SF-539; > 100 µM (inactive) with OVCAR-3. The GI50 with NCI-H23 and in the assay on HOP-62 was > 100 µM (inactive) throughout.
Consider `OCCCCCNc1cc(O)nc(O)n1`, for which the GI50 in the assay on K562, in the assay with COLO 205, in the assay with NCI-H460, with U-251, in the assay with Hs-578T and in the assay with IGROV-1 was > 100 µM (inactive) each time. The GI50 with NCI-H522, in the assay with UACC-257, in the assay on MDA-MB-435, in the assay with UO-31, in the assay on HCC 2998 and in the assay with A498 was > 100 µM (inactive) in each case. For the same compound, the GI50 with HL-60 is > 100 µM (inactive); in the assay with HCT-15 it was above 100 µM; with CCRF-CEM it was > 100 µM (inactive); in the assay on CAKI-1 it was > 100 µM (inactive); in the assay on SF-539 it was > 100 µM (inactive); in the assay on OVCAR-3, > 100 µM (inactive). Besides, the GI50 in the assay with NCI-H23 and in the assay with HOP-62 was > 100 µM (inactive) throughout.
As for `O=c1ssc2c1Nc1c(ssc1=O)S2`, the GI50 is 8 µM (inactive) with K562; 18 µM (inactive) in the assay with COLO 205; 17.3 µM (inactive) with NCI-H460; 16.4 µM (inactive) in the assay on U-251; 33.7 µM (inactive) with Hs-578T; 13.2 µM (inactive) in the assay with IGROV-1. The GI50 is 8.28 µM (inactive) with NCI-H522; 14.6 µM (inactive) in the assay with UACC-257; 18.5 µM (inactive) in the assay on MDA-MB-435; 11.4 µM (inactive) in the assay with UO-31; 15.1 µM (inactive) in the assay on HCC 2998; 11.9 µM (inactive) in the assay with A498. For the same compound, the GI50 was 4.48 µM (inactive) in the assay with HL-60; 11.4 µM in the assay with HCT-15; 2.05 µM (inactive) in the assay on CCRF-CEM; 17.9 µM (inactive) in the assay on CAKI-1; 7.21 µM (inactive) with SF-539; 17.4 µM (inactive) with OVCAR-3. The GI50 is 18.7 µM (inactive) with NCI-H23 and 18.5 µM (inactive) with HOP-62.
For `COc1ccc(C[C@@H](C(=O)NCC(N)=O)N(C)C(=O)[C@@H]2CCCN2C(=O)[C@H](CC(C)C)NC(=O)C(C)NC(=O)OCc2ccccc2)cc1` (stereo partly drawn) (Cbz-[ξA]LP[NMeY](Me)G-NH2), the GI50 with K562, in the assay with COLO 205, with NCI-H460, in the assay on U-251, in the assay on Hs-578T and in the assay with IGROV-1 was > 100 µM (inactive) throughout. The GI50 in the assay with NCI-H522, in the assay on UACC-257, with MDA-MB-435, in the assay with UO-31, in the assay on HCC 2998 and in the assay with A498 was > 100 µM (inactive) in each case. For the same compound, the GI50 in the assay on HL-60 is > 100 µM (inactive); in the assay on HCT-15, above 100 µM; with CCRF-CEM it was > 100 µM (inactive); in the assay with CAKI-1, > 100 µM (inactive); in the assay on SF-539, > 100 µM (inactive); with OVCAR-3, > 100 µM (inactive). For the same compound, the GI50 in the assay on NCI-H23 and with HOP-62 was > 100 µM (inactive) each time.
With `COc1ccc(/C(=N/O)c2ccccc2-c2nc3ccccc3c(=O)n2-c2ccc(S(=O)(=O)Nc3ncccn3)cc2)cc1C`, the GI50 in the assay on K562 was 12.2 µM (inactive); in the assay on COLO 205, 18.9 µM (inactive); with NCI-H460, 15.6 µM (inactive); in the assay with U-251 it was 11.8 µM (inactive); with Hs-578T, 29.4 µM (inactive); in the assay with IGROV-1 it was 17.8 µM (inactive). For the same compound, the GI50 in the assay with NCI-H522 was 14.2 µM (inactive); with UACC-257, 17.1 µM (inactive); in the assay with MDA-MB-435, 14.9 µM (inactive); in the assay on UO-31, 19.6 µM (inactive); in the assay on HCC 2998, 10.2 µM (inactive); in the assay on A498, 20.4 µM (inactive). For the same compound, the GI50 in the assay on HL-60 is 11.8 µM (inactive); in the assay on HCT-15, 14 µM; in the assay with CCRF-CEM, 13.6 µM (inactive); in the assay on CAKI-1 it was 21.1 µM (inactive); in the assay with SF-539 it was 13.2 µM (inactive); in the assay on OVCAR-3, 15.8 µM (inactive). The values for the GI50 with NCI-H23 and with HOP-62 were 12 µM (inactive) and 16.1 µM (inactive), respectively.
Turning to `CCNc1cc2c3c(c1)CCN3CCC2`, the GI50 was 1.72 µM (inactive) in the assay with K562; > 10 µM (inactive) in the assay on COLO 205; > 10 µM (inactive) with NCI-H460; > 10 µM (inactive) in the assay on U-251; > 10 µM (inactive) with Hs-578T; > 10 µM (inactive) with IGROV-1. Further, the GI50 is 5.98 µM (inactive) in the assay on NCI-H522; > 10 µM (inactive) with UACC-257; > 10 µM (inactive) in the assay with MDA-MB-435; > 10 µM (inactive) with UO-31; > 10 µM (inactive) in the assay with HCC 2998; > 10 µM (inactive) in the assay with A498. Further, the GI50 in the assay with HL-60 was 3.23 µM (inactive); in the assay with HCT-15, above 10 µM; with CCRF-CEM it was 4.2 µM (inactive); with CAKI-1, > 10 µM (inactive); in the assay with SF-539, > 10 µM (inactive); with OVCAR-3 it was > 10 µM (inactive). Moreover, the GI50 with NCI-H23 and with HOP-62 was > 10 µM (inactive) each time.
As to `CN(C)c1ccc(/C=C2\N=C(c3ccc([N+](=O)[O-])cc3)OC2=O)cc1`, the GI50 in the assay on K562 was 36.1 µM (inactive); in the assay with COLO 205, 99.1 µM (inactive); in the assay on NCI-H460 it was 71 µM (inactive); in the assay with U-251 it was 53.2 µM (inactive); in the assay with Hs-578T, 40.5 µM (inactive); in the assay on IGROV-1, > 100 µM (inactive). The GI50 in the assay with NCI-H522 is 33.3 µM (inactive); in the assay with UACC-257 it was 57.3 µM (inactive); in the assay on MDA-MB-435 it was 81.8 µM (inactive); in the assay on HCC 2998, 27.4 µM (inactive); in the assay on A498, > 100 µM (inactive); in the assay on HL-60 it was 41 µM (inactive). In addition, the GI50 in the assay with HCT-15 is 20 µM; in the assay with CCRF-CEM, 43.7 µM (inactive); with CAKI-1 it was > 100 µM (inactive); in the assay on SF-539, 74.5 µM (inactive); in the assay on OVCAR-3, 44.9 µM (inactive); in the assay with NCI-H23, 45.1 µM (inactive). The GI50 with HOP-62 was > 100 µM (inactive).
On to `CC(=O)Oc1cc(OC(C)=O)c2c(c1C)CC[C@@H]1[C@@H]2CC[C@]2(C)[C@@H](OC(C)=O)CC[C@@H]12`, for which the GI50 in the assay on K562 was 22 µM (inactive); in the assay on NCI-H460 it was 19.3 µM (inactive); in the assay with U-251, 18 µM (inactive); with Hs-578T it was 21.9 µM (inactive); with IGROV-1, 17.2 µM (inactive); in the assay with NCI-H522, 16.7 µM (inactive). In addition, the GI50 in the assay on UACC-257 was 17.7 µM (inactive); with MDA-MB-435, 16.7 µM (inactive); in the assay on UO-31, 17.5 µM (inactive); in the assay with HCC 2998, 20.7 µM (inactive); with A498 it was 18.9 µM (inactive); in the assay on HL-60, 19.1 µM (inactive). Also, the GI50 with HCT-15 is 17.3 µM; in the assay on CCRF-CEM it was 17.5 µM (inactive); in the assay with CAKI-1, 24.5 µM (inactive); in the assay on SF-539, 16.1 µM (inactive); with OVCAR-3, 17.3 µM (inactive); in the assay with NCI-H23, 20.2 µM (inactive). In addition, the GI50 in the assay with HOP-62 was 20.9 µM (inactive).
